Measured values: PubChem BioAssay (NCI)
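A five-concentration, 48-hour dose response in 96-well plates underlies each endpoint, interpolated linearly between surrounding concentrations. GI50 = concentration required for 50% inhibition of growth. The concentration for full growth arrest is given as TGI.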

Experiments:
Test in all cases: inhibition of tumour cell growth, NCI panel, 48 h
HOP-92 NSCLC = tested on: HOP-92 NSCLC
HCT-116 colon = tested on: HCT-116 colon
A498 renal = tested on: A498 renal
SNB-19 CNS = tested on: SNB-19 CNS
ACHN renal = tested on: ACHN renal
SF-539 CNS = tested on: SF-539 CNS
HOP-62 NSCLC = tested on: HOP-62 NSCLC
786-0 renal = tested on: 786-0 renal
U251 CNS = tested on: U251 CNS
HCT-15 colon = tested on: HCT-15 colon

SMILES | GI50 (HOP-92 NSCLC) [µM] | TGI (HOP-92 NSCLC) [µM] | GI50 (HCT-116 colon) [µM] | TGI (HCT-116 colon) [µM] | GI50 (A498 renal) [µM] | TGI (A498 renal) [µM] | GI50 (SNB-19 CNS) [µM] | TGI (SNB-19 CNS) [µM] | GI50 (ACHN renal) [µM] | TGI (ACHN renal) [µM] | GI50 (SF-539 CNS) [µM] | TGI (SF-539 CNS) [µM] | GI50 (HOP-62 NSCLC) [µM] | TGI (HOP-62 NSCLC) [µM] | GI50 (786-0 renal) [µM] | TGI (786-0 renal) [µM] | GI50 (U251 CNS) [µM] | TGI (U251 CNS) [µM] | GI50 (HCT-15 colon) [µM] | TGI (HCT-15 colon) [µM]
O=C(Nc1ccccc1O)c1cccc(NC2=C(Cl)C(=O)N(Cc3ccccc3)C2=O)c1 | 10.5 | 24.3 | 2.97 | 12.1 | 14.2 | 27.7 | 13.9 | 37.5 | 4.73 | 15.7 | 10.7 | 25.4 | 7.98 | 20.6 | 2.3 | 6.78 | 3.38 | 13.9 | 2.02 | 5.13
COc1ccccc1OCC(=O)Nc1sc2c(c1C(N)=O)CCC2 | > 100 | > 100 | > 100 | > 100 | > 100 | > 100 | > 100 | > 100 | > 100 | > 100 | > 100 | > 100 | > 100 | > 100 | > 100 | > 100 | > 100 | > 100 | 33.4 | > 100
COc1ccc(CCN2C(=O)C=CC2=O)cc1OC |  | 40.1 |  | 11.2 |  | 33.1 |  | 37.2 |  | 3.17 |  | 31.3 |  | 53.8 |  | 8.15 |  | 39.1 |  | 3.83
CN(C)c1ccc(N2Cc3ccccc3OC3=C2C(=O)c2c(O)ccc(O)c2C3=O)cn1 | 0.2 | 0.467 | 0.124 | 0.288 | 2.15 | 5.8 | 0.563 | 2.24 | 0.158 | 0.698 | 0.225 | 0.602 | 1.56 | 3.86 | 0.204 | 0.423 | 0.311 | 1.2 | 0.178 | 0.502
N#C/C(=C\c1ccc(-c2ccc(Cl)cc2)o1)C(=O)Nc1ncc(Cc2ccc(Cl)cc2)s1 | 1.97 | 7.11 | 1.41 | 3.51 | 1.58 | 4.19 | 2.77 | 12.8 | 1.59 | 3.43 | 1.66 | 3.84 | 2.26 | 6.33 | 1.77 | 3.47 | 1.09 | 2.43 | 2.3 | > 100
O=C1NN(c2ccc(C(=O)O)cc2)C(=O)/C1=C\c1ccc([N+](=O)[O-])o1 | 29 | 74.8 | 20.8 | 42.8 | > 100 | > 100 | > 100 | > 100 | 24.4 | 55.3 | > 100 | > 100 | > 100 | > 100 | > 100 | > 100 | 79.9 | > 100 | 20.4 | 45.4
Cc1cc(NS(=O)(=O)c2ccc(N=Nc3cc(N=Nc4ccc(S(=O)(=O)Nc5cc(C)nc(C)n5)cc4)c4c(NC(=O)C(Cl)Cl)cccc4c3OC(=O)C(Cl)Cl)cc2)nc(C)n1 (tested in a mixture with another compound) |  | 59.2 |  | > 100 |  | 71.1 |  | 33.6 |  | 56.7 |  | 42.8 |  | 78.8 |  | 35.9 |  | 32.8 |  | 31.7
CCOc1c(Br)cc(C2C(C(=O)OC)=CN(C)C=C2C(=O)OC)cc1OC | 33.4 | > 100 | 48.3 | > 100 | 16.5 | 98.2 | 83.8 | > 100 | 77.6 | > 100 | > 100 | > 100 | > 100 | > 100 | > 100 | > 100 | 42.6 | > 100 | 33.9 | > 100
COC(=O)C1=C(O)c2cc(OC)c(OC)c(OC)c2[C@H](c2cc(OC)c(OC)c(OC)c2)C1C(=O)OC (stereo not given in full) |  | 69.3 |  | > 100 |  | > 100 |  | > 100 |  | > 100 |  | 38.9 |  | > 100 |  | > 100 |  | > 100 |  | > 100
CCC[CH2][Sn]1([CH2]CCC)[O]C(=O)c2cc(I)cc(I)c2[O]1 | 1.4 | 2.93 | 1.42 | 2.72 | 1.37 | 2.67 | 1.27 | 2.55 | 1.35 | 2.63 | 1.16 | 2.44 | 2.13 | 4.12 | 1.47 | 2.8 | 0.882 | 2.1 | 1.28 | 2.93
CCOC(=O)/C(O)=C(/c1n[nH]c(=O)c2ccccc12)[N+](=O)[O-] |  | > 100 |  | > 100 |  | > 100 |  | > 100 |  | > 100 |  | > 100 |  | > 100 |  | > 100 |  | > 100 |  | > 100
COc1cc(C(=O)c2ccc3c(c2)OCO3)cc(OC)c1OC | 2.48 | > 100 | 2.08 | > 100 | 1.75 | 7.93 | 5.07 | > 100 | 8.37 | > 100 | 1.95 | 7.52 | 3.34 | > 100 | 10.5 | > 100 | 2.81 | > 100 | 0.928 | > 100
COC(=O)Nc1nc2ccc(Oc3ccc(NC(=O)Nc4cccc(C(=O)O)c4)cc3)cc2[nH]1 | > 25 | > 25 | 8.82 | > 25 | 4.98 | > 25 | 9.36 | > 25 | 16.9 | > 25 | 4.95 | > 20.9 | 7.09 | > 22 | 10.5 | > 25 | 7.35 | > 25 | 6.49 | > 25
